Common to all, as to format: physicochemical
A short description of series [1]: Flocculation volume of particulate drug suspended in propellant (HFA 134a or HFA 227ea). The text has this:
Flocculation volume, sometimes referred to as “sedimentation volume”, can be measured by a conventional and relatively simple method. The substance under test, in particulate form, is suspended in the desired fluid vehicle at a suitable concentration. The mixture should be well agitated (typically, simply by shaking) to ensure a uniform dispersion of particles in the fluid at the start of measurement. Immediately after agitation ceases, timing begins. The mixture is left to stand, usually under ambient conditions, and the degree of settling or creaming of the solid observed over time. The flocculation volume of the mixture at a given point in time is the volume of fluid which is still occupied by the particulate dispersion, expressed as a percentage of the total fluid volume. A higher flocculation volume thus indicates less settling/creaming, which indicates improved performance. All references herein to flocculation volumes, unless otherwise stated, are to measurements made at 22° C. […] Measurements were taken at 22° C.

Series [2] can be described thus: Particle size of the powders (AEROSIZER, SYMPATEC). To be noted: powder; for MMAD: AEROSIZER
The text has this: Particle sizes may be measured for instance using (a) an AEROSIZER™ time-of-flight instrument (which gives an aerodynamic equivalent particle diameter, MMAD) or (b) a laser diffraction sensor such as the HELOS™ system available from SYMPATEC™ GmbH, Germany (which provides a geometric projection equivalent MMD). MMADs may also be assessed using a cascade impactor. Volume mean diameters may be obtained in both cases using commercially available software packages.

Series [3] is described as follows: Particle size of the powders (AEROSIZER, SYMPATEC).
Where [4] appears, read: HFA 134a, 1% w/v, 22° C., after 10 minutes.
Setting [5] is: HFA 134a, averaged over the first 2 minutes.
The mark [6] stands for this setting: HFA 227ea, averaged over the first 2 minutes.
[7] abbreviates: HFA 134a, averaged over the first minute.
Setting [8] is: HFA 227ea, 1% w/v, 22° C., after 5 minutes.
The mark [9] stands for this setting: HFA 227ea, averaged over the first minute.
[10] abbreviates: HFA 227ea, 1% w/v, 22° C., after 10 minutes.
Setting [11] is: HFA 227ea, 1% w/v, 22° C., after 1 minute.

Where a name gives a salt, the structure may show the parent alone.

In series [1] (setting [4]), `CCCCCCCCCCCCCCCC(=O)OC1CCCn2c1nc(C)c(CCN1CCC(c3noc4cc(F)ccc34)CC1)c2=O` (single isomer, unassigned) [risperidone-(9-hydroxy)-palmitate sample A] gave a flocculation volume of 100%. In addition, the “rate of change in flocculation volume (flocculation rate)” value (from here on “rate of change in flocculation volume”) is 0 % per minute in series [1] (setting [5]) and −2.5 % per minute in series [1] (setting [6]). The MMD in series [2] (SYMPATEC) was 2.95 μm.
As to `CCCCCCCCCCCCCCCC(=O)OC1CCCn2c1nc(C)c(CCN1CCC(c3noc4cc(F)ccc34)CC1)c2=O` (single isomer, unassigned) [risperidone-(9-hydroxy)-palmitate sample B], in series [1] (setting [4]), the flocculation volume worked out at 100%. Also, the results for the “rate of change in flocculation volume” value in series [1] (setting [5]) and in series [1] (setting [6]) were 0 % per minute and −3 % per minute, respectively. This compound gave an MMD in series [2] (SYMPATEC) of 2.5 μm.
For `CCCCCCCCCCCCCCCC(=O)OC1CCCn2c1nc(C)c(CCN1CCC(c3noc4cc(F)ccc34)CC1)c2=O` (single isomer, unassigned) [risperidone-(9-hydroxy)-palmitate sample C], the flocculation volume result in series [1] (setting [4]) is listed as “greater than 80%”. Also, the entries for the “rate of change in flocculation volume” value in series [1] (setting [5]) and in series [1] (setting [6]) were −1 % per minute and −3 % per minute, respectively. In series [2] (SYMPATEC), this compound yielded an MMD of 3.5 μm.
With `OCc1cc(C(O)CNCCCCCCOCCCCc2ccccc2)ccc1O` (single isomer, unassigned) [salmeterol xinafoate sample A, Salmeterol xinafoate], the “rate of change in flocculation volume” value in series [1] (setting [5]) is on record as −3 % per minute; in series [1] (setting [6]), −11 % per minute. Also, the MMAD in series [2] is recorded as 5.3 μm.
For the compound `OCc1cc(C(O)CNCCCCCCOCCCCc2ccccc2)ccc1O` (single isomer, unassigned) [salmeterol xinafoate sample B, salmeterol xinafoate], the flocculation volume result in series [1] (setting [4]) is “greater than 98%”; in series [1] (HFA 134a, after 24 hours standing) it was “greater than 98%”. Further, the “rate of change in flocculation volume” value is recorded as −0.2 % per minute in series [1] (setting [5]) and −19 % per minute in series [1] (setting [6]). The same compound had an MMAD in series [2] of 1.6 μm.
In the case of `OCc1cc(C(O)CNCCCCCCOCCCCc2ccccc2)ccc1O` (single isomer, unassigned) [salmeterol xinafoate sample C, salmeterol xinafoate], the flocculation volume result in series [1] (HFA 134a, 1% w/v, 22° C., after 3 minutes) is “below 40%”; in series [1] (setting [4]), 30%; in series [1] (setting [8]), “below 35%”. Moreover, the figures for the “rate of change in flocculation volume” value in series [1] (setting [7]) and in series [1] (setting [9]) were −38 % per minute and −53 % per minute, respectively. The MMAD in series [2] was 1.1 μm.
In turn, `CN1C[C@H](C(=O)N[C@]2(C)O[C@@]3(O)[C@@H]4CCCN4C(=O)[C@H](Cc4ccccc4)N3C2=O)C[C@@H]2c3cccc4[nH]cc(c34)C[C@H]21` [DHE SEDS® product, dihydroergotamine mesylate] registered a flocculation volume in series [1] (setting [10]) of 100%. In addition, the creaming entry in series [1] (HFA 227ea, after 24 hours standing) is “no visible creaming”. Besides, in series [1] (setting [6]), the “rate of change in flocculation volume” value was 0 % per minute. Further, the MMAD in series [2] came to 1.25 μm.
`CN1C[C@H](C(=O)N[C@]2(C)O[C@@]3(O)[C@@H]4CCCN4C(=O)[C@H](Cc4ccccc4)N3C2=O)C[C@@H]2c3cccc4[nH]cc(c34)C[C@H]21` [DHE micronized sample, dihydroergotamine mesylate]: the flocculation volume entry in series [1] (setting [11]) is on record as “less than 20%”; in series [1] (setting [8]), “less than 10%”. For the same compound, the “rate of change in flocculation volume” value in series [1] (setting [9]) was −90 % per minute. The compound further yielded an MMD in series [2] (instrument not stated) of 15.1 μm.
Consider `CC(C)C[C@H]1C(=O)N2CCC[C@H]2[C@]2(O)O[C@](NC(=O)[C@@H]3C=C4c5cccc6[nH]c(Br)c(c56)C[C@H]4N(C)C3)(C(C)C)C(=O)N12` [bromocriptine mesylate sample B, Bromocriptine mesylate], for which the flocculation volume in series [1] (setting [4]) turned out to be 53%; in series [1] (setting [10]), 95%.
`CN1C[C@H](C(=O)N[C@]2(C)O[C@@]3(O)[C@@H]4CCCN4C(=O)[C@H](Cc4ccccc4)N3C2=O)C[C@@H]2c3cccc4[nH]cc(c34)C[C@H]21` [crystalline DHE (Examples 9), dihydroergotamine mesylate] showed a bulk powder density in series [3] of 0.14 g/mL. Moreover, the VMD in series [2] (SYMPATEC) turned out to be 2.8 μm.
With `CCC(=O)O[C@]1(C(=O)SCF)[C@H](C)C[C@H]2[C@@H]3C[C@H](F)C4=CC(=O)C=C[C@]4(C)[C@@]3(F)[C@@H](O)C[C@@]21C` [fluticasone propionate sample A, fluticasone propionate], the flocculation volume result in series [1] (setting [4]) is listed as “about 50%”. The “rate of change in flocculation volume” value in series [1] (setting [5]) is recorded as −20 % per minute. In series [2] (SYMPATEC), this compound had an MMD of 2.3 μm.
On to `CCC(=O)O[C@]1(C(=O)SCF)[C@H](C)C[C@H]2[C@@H]3C[C@H](F)C4=CC(=O)C=C[C@]4(C)[C@@]3(F)[C@@H](O)C[C@@]21C` [fluticasone propionate sample B, fluticasone propionate], for which the flocculation volume entry in series [1] (setting [4]) was “greater than 90%”. Moreover, the “rate of change in flocculation volume” value is given as −1 % per minute in series [1] (setting [5]) and −0.5 % per minute in series [1] (setting [6]). In series [2] (SYMPATEC), this compound yielded an MMD of 5.6 μm.
Turning to `CCC(=O)O[C@]1(C(=O)SCF)[C@H](C)C[C@H]2[C@@H]3C[C@H](F)C4=CC(=O)C=C[C@]4(C)[C@@]3(F)[C@@H](O)C[C@@]21C` [fluticasone propionate sample C, fluticasone propionate], the “rate of change in flocculation volume” value in series [1] (setting [6]) is listed as 0 % per minute. For the same compound, the MMD in series [2] (SYMPATEC) is 2.3 μm.
As to `CCC(=O)O[C@]1(C(=O)SCF)[C@H](C)C[C@H]2[C@@H]3C[C@H](F)C4=CC(=O)C=C[C@]4(C)[C@@]3(F)[C@@H](O)C[C@@]21C` [fluticasone propionate sample D, fluticasone propionate], the flocculation volume entry was “below 30%” in series [1] (setting [4]) and “less than 30%” in series [1] (HFA 227ea, 1% w/v, 22° C., after 3 minutes). For the same compound, the figures for the “rate of change in flocculation volume” value in series [1] (setting [7]) and in series [1] (setting [9]) were −68 % per minute and −40 % per minute, respectively. The same compound displayed an MMD in series [2] (instrument not stated) of 2.0 μm.
`CCCCCCCCCCCCCCCC(=O)OC1CCCn2c1nc(C)c(CCN1CCC(c3noc4cc(F)ccc34)CC1)c2=O` (centres unmarked) [risperidone-(9-hydroxy)-palmitate]: the flocculation volume entry in series [1] (HFA 134a, 1% w/v, 22° C., after 1 minute) is on record as “less than 20%”; in series [1] (setting [11]), “less than 20%”. In addition, the “rate of change in flocculation volume” value in series [1] (setting [7]) was −152 % per minute; in series [1] (setting [9]), −117 % per minute. In series [2] (instrument not stated), this compound returned an MMD of 8.1 μm.
For the compound `CC(C)(C)NCC(O)c1ccc(O)c(CO)c1` (centres unmarked) [salbutamol micronized sample, salbutamol], the flocculation volume entry in series [1] (HFA 134a, 1% w/v, 22° C., after 2 minutes) is “less than 20%”; in series [1] (HFA 227ea, 1% w/v, 22° C., after 2 minutes), “less than 20%”. Further, the results for the “rate of change in flocculation volume” value in series [1] (setting [7]) and in series [1] (setting [9]) were −84 % per minute and −55 % per minute, respectively. In addition, the MMD in series [2] (instrument not stated) worked out at 14.5 μm.
As to “Salbutamol sulphate [salbutamol sulphate SEDS® product]”, the flocculation volume result in series [1] (setting [4]) is reported as “greater than 70%”; in series [1] (HFA 227ea, 1% w/v, 22° C., after 8 minutes), “greater than 70%”; in series [1] (setting [10]), “greater than 60%”. Further, the “rate of change in flocculation volume” value is −10 % per minute in series [1] (setting [5]) and −5 % per minute in series [1] (setting [6]). In series [2] (SYMPATEC), this compound registered an MMD of 3.95 μm.

(Values after patent publication US10251881B2, “Particulate materials” (priority 2002, dated 2019).)
